In ChEMBL document CHEMBL5131413, “Cytotoxic effects of the biflavonoids isolated from Selaginella trichoclada on MCF-7 cells and its potential mechanism” (Bioorg Med Chem Lett, 2022):
Calls of active or inactive are those of the source. The calls are words filed in the database; no cut-off is given here.

What was measured:
Format in all cases: functional, cell-based
MCF7 [1] = assay: Cytotoxicity against human MCF7 cells measured after 24 hrs by MTT assay; details: MCF7, 24 h
MCF7 [2] = assay: Downregulation of ACSL4 gene in human MCF7 cells at 5 uM by heat map analysis
MCF7 [3] = assay: Downregulation of NOXO1 gene in human MCF7 cells at 5 uM by heat map analysis
MCF7 [4] = assay: Downregulation of LPCAT3 gene in human MCF7 cells at 5 uM by heat map analysis
MCF7 [5] = assay: Downregulation of STEAP3 gene in human MCF7 cells at 5 uM by heat map analysis
MCF7 [6] = assay: Downregulation of TP53 gene in human MCF7 cells at 5 uM by heat map analysis
MCF7 [7] = assay: Downregulation of ACSL5 gene in human MCF7 cells at 5 uM by heat map analysis
MCF7 [8] = assay: Downregulation of ATG7 gene in human MCF7 cells at 5 uM by heat map analysis
MCF7 [9] = assay: Downregulation of NOXA1 gene in human MCF7 cells at 5 uM by heat map analysis

Compound: O=c1cc(-c2ccc(O)c(-c3c(O)cc(O)c4c(=O)cc(-c5ccc(O)cc5)oc34)c2)oc2cc(O)cc(O)c12 [AMENTOFLAVONE]
- IC50 (MCF7 [1]): 75.4 µM

Compound: O=C1CC(c2ccc(O)c(-c3c(O)cc4c(c3O)C(=O)CC(c3ccc(O)cc3)O4)c2)Oc2cc(O)cc(O)c21 (stereo not drawn)
- IC50 (MCF7 [1]): 71.2 µM

Compound: COc1ccc(-c2cc(=O)c3c(O)cc(O)c(-c4cc(-c5cc(=O)c6c(O)cc(O)cc6o5)ccc4O)c3o2)cc1 [PODOCARPUSFLAVONE A]
- IC50 (MCF7 [1]): 35.1 µM

Compound: O=c1[nH]cc(F)c(=O)[nH]1 [FLUOROURACIL]
- IC50 (MCF7 [1]): 2.2 µM

Compound: COc1cc(O)c2c(=O)cc(-c3ccc(O)c(-c4c(O)cc5oc(-c6ccc(O)cc6)cc(=O)c5c4OC)c3)oc2c1
- inhibition (MCF7 [2]): Active
- inhibition (MCF7 [3]): Active
- inhibition (MCF7 [4]): Active
- IC50 (MCF7 [1]): 6.9 µM
- inhibition (MCF7 [5]): Active
- inhibition (MCF7 [6]): Active
- inhibition (MCF7 [7]): Active
- inhibition (MCF7 [8]): Active
- inhibition (MCF7 [9]): Active

Compound: O=c1cc(-c2ccc(Oc3cc(-c4cc(=O)c5c(O)cc(O)cc5o4)ccc3O)cc2)oc2cc(O)cc(O)c12 [OCHNAFLAVONE]
- IC50 (MCF7 [1]): 54.5 µM

Compound: COc1ccc(-c2cc(=O)c3c(O)cc(O)cc3o2)cc1-c1c(O)cc(O)c2c(=O)cc(-c3ccc(O)cc3)oc12 [BILOBETIN]
- IC50 (MCF7 [1]): 26.5 µM

Compound: O=C1C[C@H](c2ccc(Oc3cc(-c4cc(=O)c5c(O)cc(O)cc5o4)ccc3O)cc2)Oc2cc(O)cc(O)c21
- IC50 (MCF7 [1]): 7.7 µM

Compound: Cc1c(O)cc2c(c1O)C(=O)C[C@H](c1ccc(Oc3cc(-c4cc(=O)c5c(O)cc(O)cc5o4)ccc3O)cc1)O2
- IC50 (MCF7 [1]): 32.2 µM

Compound: COc1cc(O)c2c(=O)cc(-c3ccc(O)c(-c4c(O)cc(O)c5c(=O)cc(-c6ccc(O)cc6)oc45)c3)oc2c1 [SEQUOIAFLAVONE]
- IC50 (MCF7 [1]): 58.4 µM
